Measurements from US20090215778A1, “Alpha-substituted Arylmethyl Piperazine Pyrazolo [1,5-alpha]Pyrimidine Amide Derivatives” (priority 2007, published 2009).

Legend:
HIV-1, NL4-3 strain = assay: Virus infection assay (virus entry and single-cycle infection); format: cell-based; details: Human immunodeficiency virus 1, NL43, TZM-b1, read-out: Nl4
Description: TZM-b1 indicator cells were propagated in Dulbecco's Modified Eagle's Medium (DMEM) containing 10% fetal bovine serum (FBS, heat-inactivated) and supplemented with gentamicin (50 ug/mL).
This assay determines the effects of compounds on virus entry and single-cycle infection of cells. In this assay, virus (HIV-1, NL4-3 strain) is added to indicator cells expressing the CD4 receptor and both the CXCR4 and CCR5 co-receptor. The cells contain both a lac Z and a luciferase reporter gene under control of the viral LTR transcription promoter. The cells and virus are incubated together in the presence of various concentrations of test compounds. Successful infection of the cells by the virus permits activation of the reporter gene by the viral Tat transcription factor. The resulting beta-galactosidase or luciferase activity is quantitated using a chemiluminescent substrate and a luminescent plate reader.
Specifically, one day prior to infection, 1.5×10^4 TZM-b1 indicator cells were added to each well of a 96-well microtiter plate. On the day of the experiment, virus (MOI 0.01) in 50 μL of medium (Dulbecco's Modified Eagle's Medium) supplemented with DEAE-dextran at a final concentration of 80 μg/mL was added to cells along with various concentrations of test compound in 50 μL of Dulbecco's Modified Eagle's Medium. Control wells had virus alone. Following a 4 hr incubation at 37° C., complete media [DMEM supplemented with 10% fetal bovine serum (FBS, heat-inactivated) and gentamicin (50 ug/mL)] was added. One day post-infection the level of virus infection was quantitated by detection of β-galactosidase expression using the Gal-Screen system (Applied Biosystems).

[1] = biological target: T1, HIV Env six-helix bundle (6HB) structure (Human immunodeficiency virus type 1 group M subtype B, UniProt P04579); assay: Six-helix bundle (6HB) assay; format: cell-based, HIV-1 (strain RF)
T1 construct: H9 cells chronically infected with HIV-1 (H9/HIV-1RF); endogenous in cells; host or cells: H9 cells chronically infected with HIV-1 strain RF (Env is made from the virus in the infected cells, not by transfection)
Description: 3×10^6H9 cells were incubated with 1 mL of HIV-1 (strain RF) supplemented with 40 μg/mL of DEAE-dextran. Virus and cells were incubated together at 37° C. for 2-4 hours with sporadic shaking to resuspend cells. 10 mL of media (RPMI 1640 containing 10% fetal bovine serum and supplemented with 50 μg/mL gentamicin) was then added and the virus-cell coculture was incubated at 37° C. in a humidified 5% CO2 incubator. 3 days post-infection and every 2-3 days thereafter, the infected H9/HIV-1RF cells were centrifuged, the supernatant was removed, and the cells were resuspended at a density of 0.3×10^6 cells/mL in media (RPMI 1640 containing 10% fetal bovine serum and supplemented with 50 μg/mL gentamicin). Chronically infected H9/HIV-1RF cells were used in experiments starting 12-15 days after infection and up to 40 days post-infection.
This assay determines the effect of compounds on conformational changes in HIV envelope glycoprotein (Env) that are required in order for Env to mediate the fusion of the viral and cellular membranes during virus entry and infection. Specifically, this assay measures the effect of compounds on the formation of the HIV Env six-helix bundle (6HB) structure.
H9 cells chronically infected with HIV-1 (H9/HIV-1RF) were resuspended in Stain/Wash Buffer (1% bovine serum albumin, 0.1% sodium azide in phosphate-buffered saline) and aliquoted at 2.5×10^5 cells per well into 96-well V-bottom plates containing various concentrations of test compounds. Cells and compounds were incubated for 30 minutes at 37° C. Recombinant soluble CD4 (sCD4) was then added to a final concentration of 1 μg/mL. Negative control wells contained no sCD4 and no test compound. Positive control wells contained sCD4 but no test compound. The plate was incubated for 1 hour at 37° C. to allow the sCD4 to bind to HIV Env and induce conformational changes in the Env protein. Antibody that is specific for the HIV Env six-helix bundle conformation was then added (1 μL polyclonal rabbit serum per well), and the plate was incubated for an additional 1 hour at 37° C. to permit antibody binding. The cells were then washed once with Stain/Wash Buffer to remove compound and excess antibody. The cells were resuspended in Stain/Wash Buffer containing PE-labeled anti-rabbit secondary antibody (KPL) at 0.25 μg per well. The cells were incubated for 45 min at 4° C. to permit secondary antibody binding. Fluorescence was detected using a BD FACSArray™ bioanalyzer. Compounds that inhibited Env conformational changes were identified as those that decreased primary antibody binding to the six-helix bundle epitope resulting in a decrease in fluorescence signal.

T1 sequence (P04579 32-519): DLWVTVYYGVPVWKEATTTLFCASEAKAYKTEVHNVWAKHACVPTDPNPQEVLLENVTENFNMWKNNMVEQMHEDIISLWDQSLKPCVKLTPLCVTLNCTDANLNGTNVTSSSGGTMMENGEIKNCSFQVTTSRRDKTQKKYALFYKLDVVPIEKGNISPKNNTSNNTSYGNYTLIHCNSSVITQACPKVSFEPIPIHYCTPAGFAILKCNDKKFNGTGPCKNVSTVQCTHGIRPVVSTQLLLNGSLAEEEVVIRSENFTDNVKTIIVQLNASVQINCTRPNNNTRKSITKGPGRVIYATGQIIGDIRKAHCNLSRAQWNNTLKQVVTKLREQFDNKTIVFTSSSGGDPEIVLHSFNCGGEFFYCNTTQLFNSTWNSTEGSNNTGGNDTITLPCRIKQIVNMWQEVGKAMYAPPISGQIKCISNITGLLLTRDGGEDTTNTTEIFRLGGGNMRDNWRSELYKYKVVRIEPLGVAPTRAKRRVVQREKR
T1 sequence (P04579 520-865): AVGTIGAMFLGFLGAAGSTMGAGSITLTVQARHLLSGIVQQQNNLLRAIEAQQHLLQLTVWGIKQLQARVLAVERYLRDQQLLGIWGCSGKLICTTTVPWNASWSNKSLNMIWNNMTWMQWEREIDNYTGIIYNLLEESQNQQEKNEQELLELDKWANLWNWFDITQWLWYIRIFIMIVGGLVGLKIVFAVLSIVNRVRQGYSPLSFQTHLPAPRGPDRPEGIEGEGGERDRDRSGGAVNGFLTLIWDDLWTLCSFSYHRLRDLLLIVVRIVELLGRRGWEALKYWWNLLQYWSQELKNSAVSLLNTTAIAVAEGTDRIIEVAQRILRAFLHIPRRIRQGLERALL

SMILES | IC50 (HIV-1, NL4-3 strain) [nM] | IC50 [1] [nM]
COc1ccc(-c2nc3c(C(=O)N4CCN(C(CO)c5cccc(C(C)=O)c5)C[C@H]4C)cnn3c(C(F)(F)F)c2C)cc1 (stereo partly drawn) [ethanone, 1-[3-[2-hydroxy-1-[(3R)-4-[[5-(4-methoxyphenyl)-6-methyl-7-(trifluoromethyl)pyrazolo[1,5-α]pyrimidin-3-yl]carbonyl]-3-methyl-1-piperazinyl]ethyl]phenyl]-] | < 1000 | < 1000
COc1ccc(-c2nc3c(C(=O)N4CCN(C(CO)c5cc(C(C)=O)ccc5F)C[C@H]4C)cnn3c(C(F)(F)F)c2C)cc1 (stereo partly drawn) [ethanone, 1-[4-fluoro-3-[2-hydroxy-1-[(3R)-4-[[5-(4-methoxyphenyl)-6-methyl-7-(trifluoromethyl)pyrazolo[1,5-α]pyrimidin-3-yl]carbonyl]-3-methyl-1-piperazinyl]ethyl]phenyl]-] | < 1000 | < 1000
COc1ccc(-c2nc3c(C(=O)N4CCN([C@H](CO)c5ccc(C(C)=O)s5)C[C@H]4C)cnn3c(C(F)(F)F)c2C)cc1 [ethanone, 1-[5-[(1R)-2-hydroxy-1-[(3R)-4-[[5-(4-methoxyphenyl)-6-methyl-7-(trifluoromethyl)pyrazolo[1,5-α]pyrimidin-3-yl]carbonyl]-3-methyl-1-piperazinyl]ethyl]-2-thienyl]-] | 1100 to 10000 | < 1000
COc1ccc(-c2nc3c(C(=O)N4CCN([C@@H](CO)c5ccc(C(C)=O)s5)C[C@H]4C)cnn3c(C(F)(F)F)c2C)cc1 [ethanone, 1-[5-[(1S)-2-hydroxy-1-[(3R)-4-[[5-(4-methoxyphenyl)-6-methyl-7-(trifluoromethyl)pyrazolo[1,5-α]pyrimidin-3-yl]carbonyl]-3-methyl-1-piperazinyl]ethyl]-2-thienyl]-] | 1100 to 10000 | < 1000
COc1ccc(-c2nc3c(C(=O)N4CCN(C(CNS(C)(=O)=O)c5ccccc5)C[C@H]4C)cnn3c(C(F)(F)F)c2C)cc1 (stereo partly drawn) [methanesulfonamide, N-[2-[(3R)-4-[[5-(4-methoxyphenyl)-6-methyl-7-(trifluoromethyl)pyrazolo[1,5-α]pyrimidin-3-yl]carbonyl]-3-methyl-1-piperazinyl]-2-phenylethyl]-, 2,2,2-trifluoroacetate] | < 1000 | < 1000
COc1ccc(-c2nc3c(C(=O)N4CCN([C@@H](C)c5cccc(NS(C)(=O)=O)c5)C[C@H]4C)cnn3c(C(F)(F)F)c2C)cc1 [methanesulfonamide, N-[3-[(1S)-1-[(3R)-4-[[5-(4-methoxyphenyl)-6-methyl-7-(trifluoromethyl)pyrazolo[1,5-α]pyrimidin-3-yl]carbonyl]-3-methyl-1-piperazinyl]ethyl]phenyl]-] | < 1000 | < 1000
COc1ccc(-c2nc3c(C(=O)N4CCN(C(CO)c5ccccc5)CC4)cnn3c(C(F)(F)F)c2C)cc1 (stereo not drawn) [methanone, [4-(2-hydroxy-1-phenylethyl)-1-piperazinyl][5-(4-methoxyphenyl)-6-methyl-7-(trifluoromethyl)pyrazolo[1,5-α]pyrimidin-3-yl]-] | < 1000 | < 1000
COc1ccc2c(c1)CCc1c-2nc2c(C(=O)N3CCN([C@@H](CO)c4ccccc4)C[C@H]3C)cnn2c1C(F)(F)F [methanone, [5,6-dihydro-3-methoxy-7-(trifluoromethyl)benzo[h]pyrazolo[5,1-b]quinazolin-11-yl][(2R)-4-[(1R)-2-hydroxy-1-phenylethyl]-2-methyl-1-piperazinyl]-] | < 1000 | < 1000
Cc1c(-c2ccc(C3CC3)cc2)nc2c(C(=O)N3CCN([C@@H](CO)c4ccccc4)C[C@H]3C)cnn2c1C(F)(F)F [methanone, [5-(4-cyclopropylphenyl)-6-methyl-7-(trifluoromethyl)pyrazolo[1,5-α]pyrimidin-3-yl][(2R)-4-[(1R)-2-hydroxy-1-phenylethyl]-2-methyl-1-piperazinyl]-] | < 1000 | < 1000
CCc1ccc(-c2nc3c(C(=O)N4CCN([C@@H](CO)c5ccccc5)C[C@H]4C)cnn3c(C(F)(F)F)c2C)cc1 [methanone, [5-(4-ethylphenyl)-6-methyl-7-(trifluoromethyl)pyrazolo[1,5-α]pyrimidin-3-yl][(2R)-4-[(1R)-2-hydroxy-1-phenylethyl]-2-methyl-1-piperazinyl]-] | < 1000 | < 1000
C=CCN(C)CC(c1ccccc1)N1CCN(C(=O)c2cnn3c(C(F)(F)F)c(C)c(-c4ccc(OC)cc4)nc23)[C@H](C)C1 (stereo partly drawn) [methanone, [5-(4-methoxyphenyl)-6-methyl-7-(trifluoromethyl)pyrazolo[1,5-α]pyrimidin-3-yl][(2R)-2-methyl-4-[2-(methyl-2-propen-1-ylamino)-1-phenylethyl]-1-piperazinyl]] | < 1000 | < 1000
CNCC(c1ccccc1)N1CCN(C(=O)c2cnn3c(C(F)(F)F)c(C)c(-c4ccc(OC)cc4)nc23)[C@H](C)C1 (stereo partly drawn) [methanone, [5-(4-methoxyphenyl)-6-methyl-7-(trifluoromethyl)pyrazolo[1,5-α]pyrimidin-3-yl][(2R)-2-methyl-4-[2-(methylamino)-1-phenylethyl]-1-piperazinyl]-] | < 1000 | < 1000
COc1ccc(-c2nc3c(C(=O)N4CCN([C@H](C)c5cc(F)cc(F)c5F)C[C@H]4C)cnn3c(C(F)(F)F)c2C)cc1 [methanone, [5-(4-methoxyphenyl)-6-methyl-7-(trifluoromethyl)pyrazolo[1,5-α]pyrimidin-3-yl][(2R)-2-methyl-4-[(1R)-1-(2,3,5-trifluorophenyl)ethyl]-1-piperazinyl]-] | < 1000 | < 1000
COc1ccc(-c2nc3c(C(=O)N4CCN([C@H](C)c5cc(F)c(F)c(F)c5)C[C@H]4C)cnn3c(C(F)(F)F)c2C)cc1 [methanone, [5-(4-methoxyphenyl)-6-methyl-7-(trifluoromethyl)pyrazolo[1,5-α]pyrimidin-3-yl][(2R)-2-methyl-4-[(1R)-1-(3,4,5-trifluorophenyl)ethyl]-1-piperazinyl]-] | < 1000 | < 1000
COc1ccc(-c2nc3c(C(=O)N4CCN([C@H](C)c5ccccc5)C[C@H]4C)cnn3c(C(F)(F)F)c2C)cc1 [methanone, [5-(4-methoxyphenyl)-6-methyl-7-(trifluoromethyl)pyrazolo[1,5-α]pyrimidin-3-yl][(2R)-2-methyl-4-[(1R)-1-phenylethyl]-1-piperazinyl]-] | < 1000 | < 1000
COc1ccc(-c2nc3c(C(=O)N4CCN([C@H](c5ccccc5)C(F)(F)F)C[C@H]4C)cnn3c(C(F)(F)F)c2C)cc1 [methanone, [5-(4-methoxyphenyl)-6-methyl-7-(trifluoromethyl)pyrazolo[1,5-α]pyrimidin-3-yl][(2R)-2-methyl-4-[(1R)-2,2,2-trifluoro-1-phenylethyl]-1-piperazinyl]-] | < 1000 | < 1000
COc1ccc(-c2nc3c(C(=O)N4CCN([C@@H](C)c5ccn(C)n5)C[C@H]4C)cnn3c(C(F)(F)F)c2C)cc1 [methanone, [5-(4-methoxyphenyl)-6-methyl-7-(trifluoromethyl)pyrazolo[1,5-α]pyrimidin-3-yl][(2R)-2-methyl-4-[(1S)-1-(1-methyl-1H-pyrazol-3-yl)ethyl]-1-piperazinyl]-] | < 1000 | 1100 to 10000
